{"source": "patent US12304912B2", "about": "“Fused bicyclic RAF inhibitors and methods for use thereof” (Jazz Pharmaceuticals Ireland Limited, priority 2020, dated 2025)", "note": "Where a name gives a salt, the structure may show the parent alone.", "data": [{"system": "not listed separately", "assay": "FeSSIF solubility assay", "assay_type": "physicochemical", "details": "fed state simulated intestinal fluid (FeSSIF), thermodynamic from solid, pH 5 acetate buffer, 37° C., read-out: FESSIF Sol", "method_in_brief": "(§1)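 FeSSIF (pH 5 acetate buffer, 1 mL) was added to 1.0 mg solid compound and shaken at 650 rpm and 37 °C for 24 h. After filtration, dissolved compound was quantified by LC-UV against a 250 μM calibration standard.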", "units": {"solubility thermodynamic at 24 h": "µg/mL"}, "values": [{"compound": "O=C(Nc1cc(Oc2ccc3c(c2)CC(c2nc(-c4ccccc4)c[nH]2)CO3)ccn1)C1CC1(F)F", "note": "(stereo not shown) [Compound 137, 2,2-difluoro-N-[4-[3-(4-phenyl-1H-imidazol-2-yl)chroman-6-yl]oxy-2-pyridyl]cyclopropanecarboxamide]", "solubility thermodynamic at 24 h": 73.9}, {"compound": "O=C(Cn1ccnc1)Nc1cc(Oc2ccc3c(c2)CC(c2nc(-c4ccccc4)c[nH]2)CO3)ccn1", "note": "(stereo not shown) [Compound 144]", "solubility thermodynamic at 24 h": 318}, {"compound": "O=C(CN1CCOCC1)Nc1cc(Oc2ccc3c(c2)CC(c2nc(-c4ccccc4)c[nH]2)CO3)ccn1", "note": "(stereo not shown) [Compound 149]", "solubility thermodynamic at 24 h": 200}, {"compound": "Cc1cc(-c2c[nH]c(C3COc4ccc(Oc5ccnc6c5CCC(=O)N6)cc4C3)n2)ccn1", "note": "(stereo not shown) [Compound 117, 5-[3-[4-(2-methyl-4-pyridyl)-1H-imidazol-2-yl]chroman-6-yl]oxy-3,4-dihydro-1H-1,8-naphthyridin-2-one]", "solubility thermodynamic at 24 h": 1.4}, {"compound": "CCc1cc(-c2c[nH]c(C3COc4ccc(Oc5ccnc6c5CCC(=O)N6)cc4C3)n2)n(C2CC2)n1", "note": "(stereo not shown) [Compound 113, 5-[3-[4-(2-cyclopropyl-5-ethyl-pyrazol-3-yl)-1H-imidazol-2-yl]chroman-6-yl]oxy-3,4-dihydro-1H-1,8-naphthyridin-2-one]", "solubility thermodynamic at 24 h": 140}, {"compound": "O=C1CCc2c(Oc3ccc4c(c3)CC(c3nc(-c5cccnc5C(F)(F)F)c[nH]3)CO4)ccnc2N1", "note": "(stereo not shown) [Compound 128, 5-[3-[4-[2-(trifluoromethyl)-3-pyridyl]-1H-imidazol-2-yl]chroman-6-yl]oxy-3,4-dihydro-1H-1,8-naphthyridin-2-one]", "solubility thermodynamic at 24 h": 1.6}, {"compound": "CN1CCC(C(=O)Nc2cc(Oc3ccc4c(c3)CC(c3nc(-c5ccccc5)c[nH]3)CO4)ccn2)CC1", "note": "(stereo not shown) [Compound 147, 1-methyl-N-[4-[3-(4-phenyl-1H-imidazol-2-yl)chroman-6-yl]oxy-2-pyridyl]piperidine-4-carboxamide]", "solubility thermodynamic at 24 h": 528}, {"compound": "Cc1cc(-c2c[nH]c(C3COc4ccc(Oc5ccnc6c5CCC(=O)N6)cc4C3)n2)n(C2CC2)n1", "note": "(stereo not shown) [Compound 114, 5-[3-[4-(2-cyclopropyl-5-methyl-pyrazol-3-yl)-1H-imidazol-2-yl]chroman-6-yl]oxy-3,4-dihydro-1H-1,8-naphthyridin-2-one]", "solubility thermodynamic at 24 h": 497}, {"compound": "Cc1cc(-c2c[nH]c(C3COc4ccc(Oc5ccnc6c5CCC(=O)N6)cc4C3)n2)n(C(C)C)n1", "note": "(stereo not shown) [Compound 112, 5-[3-[4-(2-isopropyl-5-methyl-pyrazol-3-yl)-1H-imidazol-2-yl]chroman-6-yl]oxy-3,4-dihydro-1H-1,8-naphthyridin-2-one]", "solubility thermodynamic at 24 h": 51.1}, {"compound": "Cc1cc(-c2c[nH]c(C3COc4ccc(Oc5ccnc6c5CCC(=O)N6)cc4C3)n2)n(CC(F)(F)F)n1", "note": "(stereo not shown) [Compound 126, 5-[3-[4-[5-methyl-2-(2,2,2-trifluoroethyl)pyrazol-3-yl]-1H-imidazol-2-yl]chroman-6-yl]oxy-3,4-dihydro-1H-1,8-naphthyridin-2-one]", "solubility thermodynamic at 24 h": "< 1.3"}, {"compound": "O=C1CCc2c(Oc3ccc4c(c3)CC(c3nc(-c5ccc(C(F)(F)F)nc5)c[nH]3)CO4)ccnc2N1", "note": "(stereo not shown) [Compound 127, 5-[3-[4-[6-(trifluoromethyl)-3-pyridyl]-1H-imidazol-2-yl]chroman-6-yl]oxy-3,4-dihydro-1H-1,8-naphthyridin-2-one]", "solubility thermodynamic at 24 h": 6}, {"compound": "O=C(Nc1cc(Oc2ccc3c(c2)CC(c2nc(-c4ccccc4)c[nH]2)CO3)ccn1)C1CC(F)(F)C1", "note": "(stereo not shown) [Compound 139]", "solubility thermodynamic at 24 h": 107}]}, {"system": "not listed separately", "assay": "FeSSIF solubility assay", "assay_type": "physicochemical", "details": "fed state simulated intestinal fluid (FeSSIF), thermodynamic from solid, pH 5 acetate buffer, 37° C., read-out: Sol (FESSIF)", "method_in_brief": "as §1", "units": {"solubility thermodynamic at 24 h": "µg/mL"}, "values": [{"compound": "COc1cc(-c2c[nH]c(C3COc4ccc(Oc5ccnc6c5CCC(=O)N6)cc4C3)n2)ccn1", "note": "(stereo not shown) [Compound 19, 5-[3-[4-(2-methoxy-4-pyridyl)-1H-imidazol-2-yl]chroman-6-yl]oxy-3,4-dihydro-1H-1,8-naphthyridin-2-one]", "solubility thermodynamic at 24 h": 19.6}, {"compound": "O=C1CCc2c(Oc3ccc4c(c3)CC(c3nc5cc(Cl)ccc5[nH]3)CO4)ccnc2N1", "note": "(stereo not shown) [Compound 25]", "solubility thermodynamic at 24 h": 1.8}, {"compound": "O=C1CCc2c(Oc3ccc4c(c3)CN(C(=O)Nc3ccc(C(F)(F)F)cc3)CC4)ccnc2N1", "note": "[Compound 47]", "solubility thermodynamic at 24 h": 27.5}]}, {"system": "not listed separately", "assay": "Solubility (Sol), medium not stated", "assay_type": "physicochemical", "details": "cells not marked (FESSIF)", "units": {"Sol": "mg/L"}, "values": [{"compound": "O=C1CCc2c(Oc3ccc4c(c3)CC(c3nc5cc(F)c(F)cc5[nH]3)CO4)ccnc2N1", "note": "(stereo not shown) [Compound 23]", "Sol": "<1.1"}, {"compound": "N#Cc1ccc2[nH]c(C3COc4ccc(Oc5ccnc6c5CCC(=O)N6)cc4C3)nc2c1", "note": "(stereo not shown) [Compound 24]", "Sol": "<1.1"}, {"compound": "O=C1CCc2c(Oc3ccc4c(c3)CC(c3nc5cc(C(F)(F)F)ccc5[nH]3)CO4)ccnc2N1", "note": "(stereo not shown) [Compound 22, 5-[3-[6-(trifluoromethyl)-1H-benzimidazol-2-yl]chroman-6-yl]oxy-3,4-dihydro-1H-1,8-naphthyridin-2-one]", "Sol": "<1.2"}, {"compound": "O=C1CCc2c(Oc3ccc4c(c3)CC(c3nc(-c5cccc(C(F)(F)F)c5)c[nH]3)CO4)ccnc2N1", "note": "(stereo not shown) [Compound 12, 5-[3-[4-[3-(trifluoromethyl)phenyl]-1H-imidazol-2-yl]chroman-6-yl]oxy-3,4-dihydro-1H-1,8-naphthyridin-2-one]", "Sol": "<1.3"}, {"compound": "O=C1CCc2c(Oc3ccc4c(c3)CN(c3nc(-c5ccccc5)n[nH]3)CC4)ccnc2N1", "note": "[Compound 44, 5-[[2-(3-phenyl-1H-1,2,4-triazol-5-yl)-3,4-dihydro-1H-isoquinolin-7-yl]oxy]-3,4-dihydro-1H-1,8-naphthyridin-2-one hydrochloride]", "Sol": "<1.2"}, {"compound": "Cc1cc2nc(C3COc4ccc(Oc5ccnc6c5CCC(=O)N6)cc4C3)[nH]c2cc1C", "note": "(stereo not shown) [Compound 29]", "Sol": "<1.1"}, {"compound": "O=C1CCc2c(Oc3ccc4c(c3)CC(c3nc5cc(C(F)(F)F)ncc5[nH]3)CO4)ccnc2N1", "note": "(racemic) [Compound 32]", "Sol": "<1.2"}, {"compound": "O=C(Nc1cc(Oc2ccc3c(c2)CC(c2nc(-c4ccccc4)c[nH]2)CO3)ccn1)C1CC1", "note": "(stereo not shown) [Compound 45, N-[4-[3-(4-phenyl-1H-imidazol-2-yl)chroman-6-yl]oxy-2-pyridyl]cyclopropanecarboxamide]", "Sol": "<1.2"}, {"compound": "CN(C)c1ccc2[nH]c(C3COc4ccc(Oc5ccnc6c5CCC(=O)N6)cc4C3)nc2c1", "note": "(stereo not shown) [Compound 26]", "Sol": "<1.1"}, {"compound": "O=C1CCc2c(Oc3ccc4c(c3)CN(C(=O)Nc3cccc(C(F)(F)F)c3)CC4)ccnc2N1", "note": "[Compound 50]", "Sol": "<1.2"}]}, {"system": "HCT-116 cells", "assay": "HCT-116 CellTiter-Glo 3D cell proliferation assay", "assay_type": "cell-based", "details": "Homo sapiens, HCT-116; HCT116 cells, 3D proliferation; read-out: 3D HCT116 pGI50 (converted)", "protocol": "HCT-116 CellTiter-Glo 3D Cell Proliferation Assay\nThe human HCT-116 colorectal carcinoma cell line (ATCC CCL-247) endogenously expresses the KRAS^G13D mutation, which leads to enhanced survival and proliferative signaling. […] On the first day, HCT-116 cells were harvested, resuspended in growth medium (McCoys5A with Glutamax (Life Technologies 36600021) with 10% heat-inactivated fetal bovine serum (Sigma F9665)), and counted. Cells were plated in 100 μl per well in each well of a Corning 7007 96-well clear round bottom Ultra-Low Attachment plate (VWR 444-1020) to a final density of 1000 cells per well. Cells were seeded for pre- and post-treatment readouts. The cells were then incubated at 37° C. and 5% CO2 for 3 days (72 hours) to allow spheroid formation. After 72 hours, the plate seeded for a pre-treatment read was removed from the incubator to allow equilibration to room temperature for 30 minutes, before CellTitre-Glo® reagent was added to each well. The plates were incubated at room temperature for 5 minutes shaking at 300 rpm, followed by an incubation of 25 minutes on the benchtop before being read on the Envision reader (Perkin Elmer) as described below. On the same day, the cells plated for the post-treatment readout were dosed with compounds to produce a 9-point dose response, where the top concentration was 15 μM and following concentrations were at 1/2 log dilution intervals. These cells were subsequently incubated at 37° C. and 5% CO2 for another 4 days (96 hours). After 4 days, the plate was removed from the incubator to allow equilibration to room temperature for 30 minutes and treated with CellTitre Glo® reagent as stated above. […] The CellTitre Glo® reagent lyses the cells and contains luciferin and a luciferase (Ultra-Glo™ Recombinant Luciferase), which in the presence of ATP and oxygen can produce bioluminescence from luciferin. Therefore, plates were read on an EnVision reader (Perkin Elmer) and luminescence signals were recorded. Cell proliferation was determined on 4 days after dosing relative to the pre-treatment read. All data were analyzed using the Dotmatics or GraphPad Prism software packages. Inhibition of proliferation was assessed by determination of the GI50 value, which was defined as the concentration of compound required to decrease the level of cell proliferation by 50% when compared to DMSO control.", "units": {"GI50": "nM"}, "values": [{"compound": "O=C(Nc1cc(Oc2ccc3c(c2)CC(c2nc(-c4ccccc4)c[nH]2)CO3)ccn1)C1CC1(F)F", "note": "(stereo not shown) [Compound 137, 2,2-difluoro-N-[4-[3-(4-phenyl-1H-imidazol-2-yl)chroman-6-yl]oxy-2-pyridyl]cyclopropanecarboxamide]", "GI50": 70.8}, {"compound": "O=C(Cn1ccnc1)Nc1cc(Oc2ccc3c(c2)CC(c2nc(-c4ccccc4)c[nH]2)CO3)ccn1", "note": "(stereo not shown) [Compound 144]", "GI50": 100}, {"compound": "O=C(CN1CCOCC1)Nc1cc(Oc2ccc3c(c2)CC(c2nc(-c4ccccc4)c[nH]2)CO3)ccn1", "note": "(stereo not shown) [Compound 149]", "GI50": 851}, {"compound": "Cc1cc(-c2c[nH]c(C3COc4ccc(Oc5ccnc6c5CCC(=O)N6)cc4C3)n2)ccn1", "note": "(stereo not shown) [Compound 117, 5-[3-[4-(2-methyl-4-pyridyl)-1H-imidazol-2-yl]chroman-6-yl]oxy-3,4-dihydro-1H-1,8-naphthyridin-2-one]", "GI50": 214}, {"compound": "CN1CCC(C(=O)Nc2cc(Oc3ccc4c(c3)CC(c3nc(-c5ccccc5)c[nH]3)CO4)ccn2)CC1", "note": "(stereo not shown) [Compound 147, 1-methyl-N-[4-[3-(4-phenyl-1H-imidazol-2-yl)chroman-6-yl]oxy-2-pyridyl]piperidine-4-carboxamide]", "GI50": 1380}, {"compound": "c1ccc(-c2c[nH]c(C3COc4ccc(Oc5ccnc(Nc6ccccn6)c5)cc4C3)n2)cc1", "note": "(stereo not shown) [Compound 140, 4-[3-(4-phenyl-1H-imidazol-2-yl)chroman-6-yl]oxy-N-(2-pyridyl)pyridin-2-amine]", "GI50": 1320}, {"compound": "COc1cc(-c2c[nH]c(C3COc4ccc(Oc5ccnc6c5CCC(=O)N6)cc4C3)n2)ccn1", "note": "(stereo not shown) [Compound 104]", "GI50": 447}, {"compound": "O=C1CCc2c(Oc3ccc4c(c3)CC(c3nc5ccncc5[nH]3)CO4)ccnc2N1", "note": "(stereo not shown) [Compound 134, 5-[3-(3H-imidazo[4,5-c]pyridin-2-yl)chroman-6-yl]oxy-3,4-dihydro-1H-1,8-naphthyridin-2-one]", "GI50": 15100}, {"compound": "Cn1nc(C(F)(F)F)cc1-c1c[nH]c(C2COc3ccc(Oc4ccnc5c4CCC(=O)N5)cc3C2)n1", "note": "(stereo not shown) [Compound 107, 5-[3-[4-[2-methyl-5-(trifluoromethyl)pyrazol-3-yl]-1H-imidazol-2-yl]chroman-6-yl]oxy-3,4-dihydro-1H-1,8-naphthyridin-2-one]", "GI50": 229}, {"compound": "CCc1cc(-c2c[nH]c(C3COc4ccc(Oc5ccnc6c5CCC(=O)N6)cc4C3)n2)ccn1", "note": "(stereo not shown) [Compound 118, 5-[3-[4-(2-ethyl-4-pyridyl)-1H-imidazol-2-yl]chroman-6-yl]oxy-3,4-dihydro-1H-1,8-naphthyridin-2-one]", "GI50": 398}, {"compound": "O=C(CN1CC[C@@H](O)C1)Nc1cc(Oc2ccc3c(c2)CC(c2nc(-c4ccccc4)c[nH]2)CO3)ccn1", "note": "(stereo partly shown) [Compound 145]", "GI50": 479}, {"compound": "Cn1ncc2ccc(-c3c[nH]c(C4COc5ccc(Oc6ccnc7c6CCC(=O)N7)cc5C4)n3)cc21", "note": "(stereo not shown) [Compound 130, 5-[3-[4-(1-methylindazol-6-yl)-1H-imidazol-2-yl]chroman-6-yl]oxy-3,4-dihydro-1H-1,8-naphthyridin-2-one]", "GI50": 617}]}]}
